Patent US20090192204A1, “N-(2-THIAZOLYL)-AMIDE DERIVATIVES AS GSK-3 INHIBITORS” (NOSCIRA, S.A., priority 2006, published 2009)

Experiments:
[1] = biological target: T1, Recombinant human glycogen synthase kinase 3β (Homo sapiens, UniProt P49841); test: GSK-3β inhibition (radiometric kinase assay, GS-2 peptide, 33P-ATP); assay type: biochemical; details: 0.5 h, remaining GSK-3 activity; for remaining activity at 25 µM: compound 25 μM; for remaining activity at 50 µM: compound 50 μM
T1 construct: purchased Upstate 14-306
Protocol: This assay is based on the protocol detailed by Upstate Cat. 14-306, making some slight modifications.
Recombinant human glycogen synthase kinase 3β is assayed in MOPS 11 mM pH7.4, EDTA 0.2 mM, EGTA 1.25 mM, MgCl2 26.25 mM and sodium orthovanadate 0.25 mM in the presence of 62.5 μM of Phospho-Glycogen Synthase Peptide-2 (GS-2) (TOCRIS, Cat. 1352), 0.5 μCi γ-^33P-ATP and unlabelled ATP (Sigma, A-9187) at a final concentration of 12.5 μM. After incubation for 30 minutes at 30° C., aliquots are spotted onto P81 phosphocellulose papers. Filters are washed four times for at least 10 minutes each with 1% phosphoric acid and counted with scintillation cocktail in a scintillation counter (PerkinElmer, Microbeta 1450). The activity of GSK-3 is tested at concentrations of 25 and 50 μM, in the presence of the compounds synthesized according to examples 1 to 7 and in the presence of another 6 compounds of formula (I).The results obtained are indicated in Table I (see below), in the form of percentage of GSK-3 activity.

[2] = test system: phosphorylated human Tau [pS396]; test: Inhibition of tau phosphorylation in SHSY5Y cells (Tau [pS396] sandwich ELISA); assay type: cell-based; set-up: key: “NEG” means no tau phosphorylation inhibition was detected at the referred concentration of compound (I); “POS” means that at the referred concentration tau phosphorylation inhibition was detected; details: 18 h
Protocol: Human neuroblastoma SHSY5Y cells were seeded in the presence of Minimum Essential Medium/Nutrient Mixture F-12. One day later, cells are treated with samples for 18 h at 37° C. After treatment, cultures are washed with phosphate-buffered saline and lysed for 30 min at 4° C. in extraction buffer (10 mM Tris-HCl, pH 7.4, 100 mM NaCl, 1 mM EDTA, 2 mM Na3VO4, 1% Triton X-100, 10% glycerol, 0.1% SDS, 0.5% Sodium deoxycholate, 1 mM PMSF and a protease inhibitor cocktail (Roche, Cat 1 697 498)).
The quantitative determination of phosphorylated human Tau is made taking aliquots of the cell lysate and using a phosphorylation-specific antibody against Tau [pS396] in a sandwich ELISA (Biosource, Cat KHB7031). Tau phosphorylation is estimated by measuring the absorbance at 450 nm in a microtiter plate reader (Cultek, Anthos 2010).
The effect of the synthesized compounds according to examples 1-7 and that of another 6 compounds of formula (I) is determined at different final concentrations, namely 50, 100 and 200 μM. Not all the compounds of formula (I) were tested at all the concentrations. The results are indicated in Table 1 (see below) as “NEG” and “POS”, respectively meaning “negative” and “positive”; “NEG” means no tau phosphorylation inhibition was detected at the referred concentration of compound (I); “POS” means that at the referred concentration tau phosphorylation inhibition was detected.

[3] = test system: SH-SY5Y cells; test: Cell survival by LDH release in SH-SY5Y cells; assay type: cell-based
Protocol: In addition to tau phosphorylation assays, quantification of cell death due to potential toxicity of compounds 1, 4, 5, 7, 8, 9, 10 and 11 described above is made by measuring LDH release (Roche, Cat 1 644 793). For the quantitative determination of cell survival, aliquots of the cell lysate are incubated with an equal volume of reaction mixture at room temperature for 20-30 min. The measure of absorbance is made in a microtiter plate reader with 490-492 nm filter (Cultek, Anthos 2010).
For compounds 4 and 5, the cell survival was measured at 24 hours treatment (see Table 2), and for compounds 1, 7, 8, 9, 10 and 11 was measured at 18 hours treatment (see Table 3), in SH-SY5Y cells. It is generally considered that a compound is considered toxic if less than 80% of the cells survive after treatment with a compound.

T1 sequence (P49841 whole entry): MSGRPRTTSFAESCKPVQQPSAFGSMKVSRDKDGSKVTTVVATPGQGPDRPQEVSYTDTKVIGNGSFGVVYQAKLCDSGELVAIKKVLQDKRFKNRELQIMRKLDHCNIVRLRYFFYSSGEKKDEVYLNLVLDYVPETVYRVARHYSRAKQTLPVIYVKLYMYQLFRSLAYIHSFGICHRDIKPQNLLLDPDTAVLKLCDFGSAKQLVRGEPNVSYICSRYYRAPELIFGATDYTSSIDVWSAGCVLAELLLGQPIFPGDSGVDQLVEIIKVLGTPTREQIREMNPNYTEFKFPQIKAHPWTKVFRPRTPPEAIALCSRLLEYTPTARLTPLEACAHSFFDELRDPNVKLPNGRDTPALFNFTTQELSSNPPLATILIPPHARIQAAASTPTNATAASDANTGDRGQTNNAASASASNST

Compound	remaining activity at 25 µM [1] [%]	remaining activity at 50 µM [1] [%]	Tau phosphorylation inhibition in cells ([2]; 50 μM)	Tau phosphorylation inhibition in cells ([2]; 100 μM)	Tau phosphorylation inhibition in cells ([2]; 200 μM)	% of cell viability ([3]; 50 μM, 18 hours treatment) [%]	% of cell viability ([3]; 100 μM, 18 hours treatment) [%]	% of cell viability ([3]; 10 μM, 24 hours treatment) [%]	% of cell viability ([3]; 25 μM, 24 hours treatment) [%]
O=C(CCCc1c[nH]c2ccccc12)Nc1ncc([N+](=O)[O-])s1 [Compound 1]	37.4	18.9	NEG	NEG	NEG	103.2 ± 17	101.0 ± 17		
Cc1cnc(NC(=O)Cc2c[nH]c3ccccc23)s1 [Compound 12]	49.1	37.1							
O=C(CCc1c[nH]c2ccccc12)Nc1ncc([N+](=O)[O-])s1 [Compound 5]	19.1	12.4	POS	POS	POS			87.8 ± 3.8	86.1 ± 18.4
O=C(Cc1c[nH]c2ccccc12)Nc1ncc([N+](=O)[O-])s1 [Compound 4, 2-(Indol-3-yl)-N-(5-nitro-thiazol-2-yl)-acetamide]	6.29	8.51	NEG	POS	POS			91.7 ± 1.9	90 ± 3.7
Cc1[nH]c2ccccc2c1CC(=O)Nc1ncc([N+](=O)[O-])s1 [Compound 9, 2-(2-Methyl-indol-3-yl)-N-(5-nitro-thiazol-2-yl)-acetamide]	7.96	2.61	POS	POS		91.6 ± 5.9	90.8 ± 5.5		
Cn1cc(CC(=O)Nc2ncc([N+](=O)[O-])s2)c2ccccc21 [Compound 8, 2-(1-Methyl-indol-3-yl)-N-(5-nitro-thiazol-2-yl)-acetamide]	17.8	9.27	POS	POS		103 ± 7.7	85.5 ± 6.5		
O=C(Cc1c[nH]c2ccccc12)Nc1ncc(Cl)s1 [Compound 6]	29.4	14.6							
COc1ccc2[nH]cc(CC(=O)Nc3ncc([N+](=O)[O-])s3)c2c1 [Compound 7, 2-(5-Methoxy-indol-3-yl)-N-(5-nitro-thiazol-2-yl)-acetamide]	43.9	32.2	NEG	POS		99.8 ± 8.6	92.9 ± 11.1		
O=C(Cc1c[nH]c2ccccc12)Nc1nccs1 [Compound 13]	70.9	42.7							
O=C(CCCc1c[nH]c2ccccc12)Nc1nccs1 [Compound 2]	59.6	39							
O=C(Nc1ncc([N+](=O)[O-])s1)c1c[nH]c2ccccc12 [Compound 3]	73.8	53.4							
COc1ccc2[nH]c(C(=O)Nc3ncc([N+](=O)[O-])s3)cc2c1 [Compound 10, 5-Methoxy-indole-2-carboxylic Acid (5-nitro-thiazol-2-yl)-amide]	18.9	11	POS	POS		84.7 ± 2.7	90.6 ± 7.2		
O=C(Nc1ncc([N+](=O)[O-])s1)c1n[nH]c2ccccc12 [Compound 11, 1H-Indazole-3-carboxylic Acid (5-nitro-thiazol-2-yl)-amide]	34.8	18.2	NEG	NEG		95.3 ± 3.3	93.9 ± 5.6		
